Results: patent publication US8759364B2, “Methods of treating bone mass diseases” (The Trustees of Columbia University in the City of New York, priority 2008, dated 2014)

Test system: peripheral serotonin production
Assay: Pilot study of tryptophan hydroxylase inhibitors on peripheral serotonin production in ovariectomized mice, Example 12
Format: in vivo
Settings: pCPA used as control; FIG. 15
Description: 6-week old C57Bl/6 inbred female mice, weighing 12-14 g, were used in the experiments. Animals were housed under 12 h light/12 h dark conditions in a room with controlled temperature (22° C.) and humidity (60%). Mice had ad libitum access to food and water, and were used after a minimum of 4 days of acclimatization to the housing conditions. All experiments were conducted following Columbia University Guidelines for the Animal Use and Care of laboratory mice.
Animals were separated into different groups one day prior to the experiments. Mice were ovariectomized (OVX) under anaesthesia (Avertin). Compounds were fed orally (Gavage) twice a day at 1700 h and at 1100 h for the pilot study while for the long term study compounds were given at 1700 h once a day. […] This route creates two potential barriers for the compound to reach the brain. […] Control animals received the same volume of vehicle. Blood was collected through heart puncture on isofluorane-anaesthesized animals, allowed to clot for 5 minutes on ice and then serum was separated, snap chilled in liquid nitrogen and frozen at −80° C. till analyzed. Mice were observed daily for any physical or behavioral abnormality during the course of investigation.
• Group 1: Vehicle • Group 2: Compound 1 • Group 3: Compound 2 • Group 4: Compound 3 • Group 5: Compound 4 (LP-533401) Experiment II: Effect of Compounds 1 and 4 on Protection from OVX-Induced Bone Loss Protocol 1: Gavage Feeding of the Compounds Will be Started 1 Day after OVX for 6 Weeks • Group 1: Sham treatment • Group 2: OVX • Group 3: OVX+Compound 1 (250 mg/kg) • Group 4: OVX+Compound 1 (500 mg/kg) • Group 5: OVX+Compound 4 (250 mg/kg) Protocol 2: Gavage Feeding of the Compounds Will be Started 2 Weeks after OVX for 6 Weeks • Group 1: Sham treatment • Group 2: OVX • Group 3: OVX+Compound 1 (250 mg/kg) • Group 4: OVX+Compound 1 (500 mg/kg) • Group 5: OVX+Compound 4 (250 mg/kg) Protocol 3: Gavage Feeding of the Compounds Will be Started 4 Weeks after OVX for 6 Weeks • Group 1: Sham treatment • Group 2: OVX • Group 3: OVX+Compound 1 (250 mg/kg) • Group 4: OVX+Compound 1 (500 mg/kg) • […] Serotonin Measurement in Serum
The Serotonin ELISA kit obtained from the Fitzgerald company was used to measure derivatized serotonin from serum. Derivatization is part of the sample preparation. Serotonin present in the serum was first quantitatively acylated using the acylation reagent into N-Acylserotonin. The principle of the assay is based on competitive ELISA, wherein serotonin that is bound to the solid phase of the plate and the N-acylserotonin compete for the fixed number of antiserum binding sites. When the reaction is in equilibrium, free antigen and free antigen-antiserum complexes are removed by washing. The antibody bound to the solid phase serotonin is then detected by anti-rabbit/peroxidase. The substrate TMB/Peroxidase reaction is read at 450 nm. The amount of antibody bound to the solid phase serotonin is inversely proportional to the concentration of serotonin in the sample.
We used Catechol-3,6-bis methyleneiminodiacetic acid [(CBMIDA) Compound 1: basic structure is a EDTA-like compound and the catechol ring is at the center)] synthesized at the Columbia University Chemistry division and para-Chlorophenylalanine (pCPA) obtained from Sigma Aldrich Corp. for our experiments. Compounds were dissolved with twice molar solution of NaHCO3 in water and given to mice orally at 250 and 500 mg/kg/dose. Compounds 2 and 3 were dissolved in water.

## NC(Cc1ccc(Cl)cc1)C(=O)O (stereo not shown) [pCPA, para-chlorophenylalanine]
  serotonin levels decreased to % below normal range: 60%
